What was measured:
Format in all cases: in vivo
[1] = test system: soybean (Glycine max L., var. Pella 86, SOY); experiment: Post-emerge greenhouse test, crop damage rating; conditions: 14 days after application
How it was run: (§1)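 Plants at the 2-3 leaf stage, sown 8-21 days earlier, were track-sprayed post-emergence with compound in acetone plus 0.25% v/v non-ionic surfactant at 63-1000 g ai/ha (187 l/ha). Damage was rated at 14 days on a 0-100 scale (0 none, 100 all plants dead), for both crop injury and weed control.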

[2] = test system: soybean (Glycine max L., var. Pella 86, SOY); experiment: Pre-emerge greenhouse test, crop damage rating; conditions: 14 days after application, rating scale 0-100
How it was run: (§2)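 Seeds sown in sandy loam one day before track-sprayer application of acetone solutions at 125–1000 g ai/ha (187 l/ha), then surface-watered to incorporate and bottom-watered. Injury scored visually at 14 days on a 0–100 scale (0 no damage, 100 complete death).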

[3] = test system: field corn (Zea mays L., var. Dekalb 535, CORN); experiment: Pre-emerge greenhouse test, crop damage rating; conditions: 14 days after application, rating scale 0-100
How it was run: as §2

[4] = test system: upland rice (Oryza sp., var.Tebonnet, RICE); experiment: Pre-emerge greenhouse test, crop damage rating; conditions: 14 days after application, rating scale 0-100
How it was run: as §2

[5] = test system: field corn (Zea mays L., var. Dekalb 535, CORN); experiment: Post-emerge greenhouse test, crop damage rating; conditions: 14 days after application
How it was run: as §1

[6] = test system: upland rice (Oryza sp., var.Tebonnet, RICE); experiment: Post-emerge greenhouse test, crop damage rating; conditions: 14 days after application
How it was run: as §1

[7] = test system: ivyleaf morningglory (Ipomoea hederacea, IPOHE); experiment: Post-emerge greenhouse herbicide test, phytotoxicity rating; conditions: 14 days after application
How it was run: as §1

[8] = test system: redroot pigweed (Amaranthus retroflexus, AMARE); experiment: as above; conditions: 14 days after application
How it was run: as §1

[9] = test system: green foxtail (Setaria viridis, SETVI); experiment: as above; conditions: 14 days after application
How it was run: as §1

[10] = test system: lambsquarters (Chenopodium album, CHEAL); experiment: as above; conditions: 14 days after application
How it was run: as §1

[11] = test system: velvetleaf (Abutilon theophrasti, ABUTH); experiment: as above; conditions: 14 days after application
How it was run: as §1

[12] = test system: sicklepod (Cassia obtusifolia, CASOB); experiment: as above; conditions: 14 days after application
How it was run: as §1

[13] = test system: Johnsongrass (Sorghum halepense, SORHA); experiment: as above; conditions: 14 days after application
How it was run: as §1

[14] = test system: barnyardgrass (Echinochloa crusgalli, ECHCG); experiment: as above; conditions: 14 days after application
How it was run: as §1

[15] = test system: large crabgrass (Digitaria sanguinalis, DIGSA); experiment: as above; conditions: 14 days after application
How it was run: as §1

[16] = test system: common ragweed (Ambrosia artemisiifolia L., AMBEL); experiment: as above; conditions: 14 days after application
How it was run: as §1

[17] = test system: common ragweed (Ambrosia artemisiifolia L., AMBEL); experiment: Pre-emerge greenhouse herbicide test, phytotoxicity rating; conditions: 14 days after application, rating scale 0-100
How it was run: as §2

[18] = test system: ivyleaf morningglory (Ipomoea hederacea, IPOHE); experiment: as above; conditions: 14 days after application, rating scale 0-100
How it was run: as §2

[19] = test system: redroot pigweed (Amaranthus retroflexus, AMARE); experiment: as above; conditions: 14 days after application, rating scale 0-100
How it was run: as §2

[20] = test system: green foxtail (Setaria viridis, SETVI); experiment: as above; conditions: 14 days after application, rating scale 0-100
How it was run: as §2

[21] = test system: lambsquarters (Chenopodium album, CHEAL); experiment: as above; conditions: 14 days after application, rating scale 0-100
How it was run: as §2

[22] = test system: velvetleaf (Abutilon theophrasti, ABUTH); experiment: as above; conditions: 14 days after application, rating scale 0-100
How it was run: as §2

[23] = test system: sicklepod (Cassia obtusifolia, CASOB); experiment: as above; conditions: 14 days after application, rating scale 0-100
How it was run: as §2

[24] = test system: Johnsongrass (Sorghum halepense, SORHA); experiment: as above; conditions: 14 days after application, rating scale 0-100
How it was run: as §2

[25] = test system: barnyardgrass (Echinochloa crusgalli, ECHCG); experiment: as above; conditions: 14 days after application, rating scale 0-100
How it was run: as §2

[26] = test system: large crabgrass (Digitaria sanguinalis, DIGSA); experiment: as above; conditions: 14 days after application, rating scale 0-100
How it was run: as §2

With `O=c1n(CCCF)nnn1-c1cc(Oc2ccc(C(F)(F)F)cn2)c(Cl)cc1F` [Compound 6-8] the “SOY crop damage rating (0-100)” value ([1]; 500 g al/ha) was 60, the “crop damage rating SOY” value ([2]; 500 g ai/ha) was 0 and the “crop damage rating CORN” value ([3]; 500 g ai/ha) was 0. The “crop damage rating RICE” value ([4]; 500 g ai/ha) was 10, the “CORN crop damage rating (0-100)” value ([5]; 500 g al/ha) was 5 and the “RICE crop damage rating (0-100)” value ([6]; 500 g al/ha) was 35. The “IPOHE phytotoxicity rating (0-100)” value ([7]; 500 g al/ha) was 60, the “AMARE phytotoxicity rating (0-100)” value ([8]; 500 g al/ha) was 80 and the “SETVI phytotoxicity rating (0-100)” value ([9]; 500 g al/ha) was 90. The “CHEAL phytotoxicity rating (0-100)” value ([10]; 500 g al/ha) was 95, the “ABUTH phytotoxicity rating (0-100)” value ([11]; 500 g al/ha) was 98 and the “CASOB phytotoxicity rating (0-100)” value ([12]; 500 g al/ha) was 40. The “SORHA phytotoxicity rating (0-100)” value ([13]; 500 g al/ha) was 10, the “ECHCG phytotoxicity rating (0-100)” value ([14]; 500 g al/ha) was 10 and the “DIGSA phytotoxicity rating (0-100)” value ([15]; 500 g al/ha) was 20. The “AMBEL phytotoxicity rating (0-100)” value ([16]; 500 g al/ha) was 20, the “phytotoxicity rating AMBEL” value ([17]; 500 g ai/ha) was 0 and the “phytotoxicity rating IPOHE” value ([18]; 500 g ai/ha) was 0. For the same compound, the “phytotoxicity rating AMARE” value ([19]; 500 g ai/ha) was 85, the “phytotoxicity rating SETVI” value ([20]; 500 g ai/ha) was 100 and the “phytotoxicity rating CHEAL” value ([21]; 500 g ai/ha) was 100. The “phytotoxicity rating ABUTH” value ([22]; 500 g ai/ha) was 80, the “phytotoxicity rating CASOB” value ([23]; 500 g ai/ha) was 0 and the “phytotoxicity rating SORHA” value ([24]; 500 g ai/ha) was 80. For the same compound, the “phytotoxicity rating ECHCG” value ([25]; 500 g ai/ha) was 0 and the “phytotoxicity rating DIGSA” value ([26]; 500 g ai/ha) was 75.
For `O=c1n(CCCF)nnn1-c1cc(Oc2ccc(C(F)(F)F)cn2)c(Cl)cc1Cl` [Compound 6-9], the “SOY crop damage rating (0-100)” value ([1]; 63 g al/ha) was 0, the “SOY crop damage rating (0-100)” value ([1]; 250 g al/ha) was 0 and the “crop damage rating SOY” value ([2]; 125 g ai/ha) was 0. The “crop damage rating SOY” value ([2]; 500 g ai/ha) was 0, the “crop damage rating CORN” value ([3]; 125 g ai/ha) was 0 and the “crop damage rating CORN” value ([3]; 500 g ai/ha) was 0. The “crop damage rating RICE” value ([4]; 125 g ai/ha) was 0, the “crop damage rating RICE” value ([4]; 500 g ai/ha) was 0 and the “CORN crop damage rating (0-100)” value ([5]; 63 g al/ha) was 0. For the same compound, the “CORN crop damage rating (0-100)” value ([5]; 250 g al/ha) was 0, the “RICE crop damage rating (0-100)” value ([6]; 63 g al/ha) was 0 and the “RICE crop damage rating (0-100)” value ([6]; 250 g al/ha) was 0. The “IPOHE phytotoxicity rating (0-100)” value ([7]; 63 g al/ha) was 0, the “IPOHE phytotoxicity rating (0-100)” value ([7]; 250 g al/ha) was 0 and the “AMARE phytotoxicity rating (0-100)” value ([8]; 63 g al/ha) was 0. For the same compound, the “AMARE phytotoxicity rating (0-100)” value ([8]; 250 g al/ha) was 0, the “SETVI phytotoxicity rating (0-100)” value ([9]; 63 g al/ha) was 0 and the “SETVI phytotoxicity rating (0-100)” value ([9]; 250 g al/ha) was 0. The “CHEAL phytotoxicity rating (0-100)” value ([10]; 63 g al/ha) was 0, the “CHEAL phytotoxicity rating (0-100)” value ([10]; 250 g al/ha) was 0 and the “ABUTH phytotoxicity rating (0-100)” value ([11]; 63 g al/ha) was 0. The “ABUTH phytotoxicity rating (0-100)” value ([11]; 250 g al/ha) was 0, the “CASOB phytotoxicity rating (0-100)” value ([12]; 63 g al/ha) was 0 and the “CASOB phytotoxicity rating (0-100)” value ([12]; 250 g al/ha) was 0. The “SORHA phytotoxicity rating (0-100)” value ([13]; 63 g al/ha) was 0, the “SORHA phytotoxicity rating (0-100)” value ([13]; 250 g al/ha) was 0 and the “ECHCG phytotoxicity rating (0-100)” value ([14]; 63 g al/ha) was 0. For the same compound, the “ECHCG phytotoxicity rating (0-100)” value ([14]; 250 g al/ha) was 0, the “DIGSA phytotoxicity rating (0-100)” value ([15]; 63 g al/ha) was 0 and the “DIGSA phytotoxicity rating (0-100)” value ([15]; 250 g al/ha) was 0. For the same compound, the “AMBEL phytotoxicity rating (0-100)” value ([16]; 63 g al/ha) was 0, the “AMBEL phytotoxicity rating (0-100)” value ([16]; 250 g al/ha) was 0 and the “phytotoxicity rating AMBEL” value ([17]; 125 g ai/ha) was 0. For the same compound, the “phytotoxicity rating AMBEL” value ([17]; 500 g ai/ha) was 0, the “phytotoxicity rating IPOHE” value ([18]; 125 g ai/ha) was 0 and the “phytotoxicity rating IPOHE” value ([18]; 500 g ai/ha) was 0. For the same compound, the “phytotoxicity rating AMARE” value ([19]; 125 g ai/ha) was 0, the “phytotoxicity rating AMARE” value ([19]; 500 g ai/ha) was 0 and the “phytotoxicity rating SETVI” value ([20]; 125 g ai/ha) was 0. For the same compound, the “phytotoxicity rating SETVI” value ([20]; 500 g ai/ha) was 0, the “phytotoxicity rating CHEAL” value ([21]; 125 g ai/ha) was 0 and the “phytotoxicity rating CHEAL” value ([21]; 500 g ai/ha) was 0. The “phytotoxicity rating ABUTH” value ([22]; 125 g ai/ha) was 0, the “phytotoxicity rating ABUTH” value ([22]; 500 g ai/ha) was 0 and the “phytotoxicity rating CASOB” value ([23]; 125 g ai/ha) was 0. The “phytotoxicity rating CASOB” value ([23]; 500 g ai/ha) was 0, the “phytotoxicity rating SORHA” value ([24]; 125 g ai/ha) was 0 and the “phytotoxicity rating SORHA” value ([24]; 500 g ai/ha) was 0. The “phytotoxicity rating ECHCG” value ([25]; 125 g ai/ha) was 0, the “phytotoxicity rating ECHCG” value ([25]; 500 g ai/ha) was 0 and the “phytotoxicity rating DIGSA” value ([26]; 125 g ai/ha) was 0. The “phytotoxicity rating DIGSA” value ([26]; 500 g ai/ha) was 0.
